Test results reported in publication PMC7972841, “In Vivo Molecular Imaging of the Efficacy of Aminopeptidase N (APN/CD13) Receptor Inhibitor Treatment on Experimental Tumors Using ^68Ga-NODAGA-c(NGR) Peptide” (BioMed Research International, 2021).
Read-outs that look alike come from different tables or passages of the source. Where a SMILES comes first, the peptide text is derived from it. Bridges are numbered along the chain shown (N, C = ends). The star is where a group is joined. NODAGA = O=C(O)CN1CCN(CC(=O)O)CCN(C(CCC(=O)*)C(=O)O)CC1

Key:
[1] = test system: APN/CD13; assay: Western blot analysis of APN/CD13 in B16-F10 tumors; type: in vivo, mouse; conditions: B16-F10 melanoma after treatment, densitometry
Description: For western blot analysis frozen tissue samples were pulverized under liquid nitrogen and tissue homogenization was performed with TissueLyser II (QIAGEN). Cells were lysed in RIPA buffer (50 mM Tris, 150 mM NaCl, 0.1 % SDS, 1 % TritonX 100, 0.5 % sodium deoxycolate, 1 mM EDTA, 1 mM Na3VO4, 1 mM NaF, 1 mM PMSF, protease inhibitor cocktail). […] Upon densitometry, negative control samples (mouse large intestine) were considered to be 1 and values are expressed as fold change relative to controls to reduce unwanted variations. […]

[2] = test system: B16-F10 tumor; assay: Ex vivo biodistribution, B16-F10 tumor-bearing mice; conditions: B16-F10 tumor-bearing mice treated ip daily (bestatin 15 mg/kg or actinonin 5 mg/kg), mean±SD, n=10
Description: (§2) For the actinonin-treated groups, 5 mg/kg actinonin (dissolved in 10 μL abs. EtOH and diluted with 140 μL HumAqua (aqua destillata, TEVA, Debrecen, Hungary)) was administrated daily by intraperitoneal injection for 7 days. The control-untreated group was injected intraperitoneally with 150 μL saline for 7 days.
(§3) After in vivo PET imaging, control-untreated tumor-bearing and treated tumor-bearing animals were euthanized with 5% Forane and dissected, and blood, urine, and samples were taken from the liver, spleen, kidney, small intestine, large intestine, stomach, heart, lungs, tumors, muscles, and fat. The weight and radioactivity of the selected organs and tissues were measured with a calibrated gamma counter (Hewlett Packard Cobra II Autogama Gamma Counter). The uptake of the APN/CD13-specific ^68Ga-NODAGA-c(NGR) radiotracer was expressed as %ID/g tissue.

[3] = test system: HT1080 tumor; assay: Ex vivo biodistribution, HT1080 tumor-bearing mice; conditions: HT1080 tumor-bearing mice treated ip daily (bestatin 15 mg/kg or actinonin 5 mg/kg), mean±SD, n=10
Description: as §2, §3

[4] = test system: human (HL60, NB4) and murine (AKR) leukemia cell lines; conditions: in vitro; cited from earlier work
Source text: (§1) In our further in vivo experiments, the efficacy of the actinonin and bestatin treatments was investigated on experimental tumors. The antitumor effect of actinonin was investigated earlier by Xu and coworkers on human (HL60, NB4) and murine (AKR) leukemia and lymphoma (RAJI, DAUDI) cell lines. […] In in vivo studies, syng ...

[5] = test system: lymphoma (RAJI, DAUDI) cell lines; conditions: in vitro; cited from earlier work
Source text: as §1

[6] = test system: AKR tumor; conditions: 5 mg/kg, syngeneic AKR tumor-bearing mice; cited from earlier work
Source text: as §1

[7] = test system: human lymphoma; conditions: subcutaneous human lymphoma-bearing nude mice; cited from earlier work
Source text: as §1

[8] = test system: HT1080 tumors; assay: Tumor volume, HT1080 tumors; type: in vivo, CB17 SCID mice; conditions: caliper, n = 10/group
Description: (§4) For experimental tumor induction, mice were anaesthetized with a dedicated small animal anaesthesia device (Tec3 Isoflurane Vaporizer, Eickemeyer Veterinary Equipment, UK) using 3% isoflurane (Forane, AbbVie), 0.4 L/min O2, and 1.4 L/min N2O. After depilation of the left shoulder area of the animals, CB17 SCID mice (n = 30) were injected subcutaneously with 1.5 × 10^6 HT1080 (human fibrosarcoma) cells in 150 μL (1/3 part of Matrigel and 2/3 part of saline), and C57BL/6 mice (n = 30) were injected subcutaneously with 3 × 10^6 B16-F10 cells in 150 μL of sterile saline. Tumor growth was assessed by caliper measurements by the same experienced researcher. The tumor size was calculated using the following formula: (largest diameter × smallest diameter^2)/2.
as §2

[9] = test system: B16-F10 tumors (APN/CD13); conditions: for T/M ratio of treated tumor: 90 min after iv tracer; for ^68Ga-NODAGA-c(NGR) SUVmean of treated tumor: PET 90 min after iv tracer, mean ± SD
Description: (§5) For experimental tumor induction, mice were anaesthetized with a dedicated small animal anaesthesia device (Tec3 Isoflurane Vaporizer, Eickemeyer Veterinary Equipment, UK) using 3% isoflurane (Forane, AbbVie), 0.4 L/min O2, and 1.4 L/min N2O. After depilation of the left shoulder area of the animals, CB17 SCID mice (n = 30) were injected subcutaneously with 1.5 × 10^6 HT1080 (human fibrosarcoma) cells in 150 μL (1/3 part of Matrigel and 2/3 part of saline), and C57BL/6 mice (n = 30) were injected subcutaneously with 3 × 10^6 B16-F10 cells in 150 μL of sterile saline. […] The tumor size was calculated using the following formula: (largest diameter × smallest diameter^2)/2.
as §2
(§6) Five and ten days after tumor cell implantation, control-untreated tumor-bearing and treated tumor-bearing animals were anaesthetized with 3% isoflurane and were injected with 5.5 ± 0.2 MBq APN/CD13-specific ^68Ga-NODAGA-c(NGR) in 150 μL saline via the lateral tail vein. After 90 min incubation time, 20 min static PET scans were performed from the tumorous area using the preclinical miniPET device (University of Debrecen, Faculty of Medicine, Department of Medical Imaging, Division of Nuclear Medicine and Translational Imaging). After 3D OSEM-LOR image reconstruction, volumes of interest (VOIs) were manually drawn around the examined regions using the BrainCAD image analysis software and quantitative standardized uptake values (SUVs) were calculated as follows: SUV = [VOI activity (Bq/mL)]/[injected activity (Bq)/animal weight (g)], assuming a density of 1 g/mL. Tumor-to-muscle (T/M) ratios were calculated from the activity of the tumor and background (muscle).

[10] = test system: HT1080 tumors (APN/CD13); conditions: for T/M SUVmean ratio of treated tumor: 90 min after iv tracer; for ^68Ga-NODAGA-c(NGR) SUVmean of treated tumor: PET 90 min after iv tracer, mean ± SD
Description: as §5, §2, §6

[11] = test system: B16-F10 tumors; assay: Tumor volume, B16-F10 tumors; type: in vivo, C57BL/6 mice; conditions: caliper, n = 10/group
Description: as §4, §2

[12] = test system: APN/CD13; assay: Western blot analysis of APN/CD13 in HT1080 tumors; type: in vivo, human; conditions: HT1080 tumors after treatment, densitometry
Description: For western blot analysis, frozen tissue samples were pulverized under liquid nitrogen, and tissue homogenization was performed with TissueLyser II (QIAGEN). Tumors were lysed in a RIPA buffer. After protein isolation, protein samples (10-40 μg) were separated on 10% SDS polyacrylamide gels and electrotransferred onto nitrocellulose membranes. After blocking, the membranes were incubated with primary anti-human and anti-mouse CD13 (from Santa-Cruz Biotechnology, Inc., USA) antibody at the dilution of 1 : 1000 overnight at 4°C. After washing, the membranes were probed with IgG HRP conjugated secondary antibody (Cell Signaling Technology, Inc., Beverly, MA, 1 : 2000). Beta-actin was used as a loading control. Bands were visualized by enhanced chemiluminescence reaction. Densitometry was performed using the ImageJ software. For the detailed protocol, please see Supplementary Material western blot analysis.
For western blot analysis frozen tissue samples were pulverized under liquid nitrogen and tissue homogenization was performed with TissueLyser II (QIAGEN). […] Upon densitometry, negative control samples (mouse large intestine) were considered to be 1 and values are expressed as fold change relative to controls to reduce unwanted variations. […]

[13] = in vitro; type: in vitro ADME; conditions: mouse, serum
Description: 5 mg (8.6 μmol) c[KNGRE]-NH2 peptide was dissolved in 0.9 mL 0.1 mol/dm^3 Na2CO3 buffer (pH = 8.42), then 7.5 mg (10.2 μmol) NODAGA-NHS ester dissolved in 0.1 mL DMSO was added to the peptide. The reaction was mixed for 24 hours at room temperature. NODAGA-c(NGR) was purified with semipreparative HPLC (KNAUER) and freeze-dried. For the radiolabeling procedure, the in vitro serum stability, and the determination of logp value, the same protocol was used as it was described earlier by our research group.
For the determination of the enzymatic stability, a stock solution was prepared from 100 μL of ^68Ga-NODAGA-c(NGR) solution and 1 mL PBS. 20 μL from this solution was introduced to 480 μL mouse serum (Sigma-Aldrich, St. Louis, Missouri, USA), and the mixture was tempered at 37°C. After 0, 30, 60, 90, and 120 min incubation time, 50 μL sample was taken and 50 μL abs. EtOH was added to the aliquots. Samples were centrifuged (20,000 rpm, 5 min), the supernatant was removed and diluted with the eluent of HPLC, then the analytical measurement was prepared.

[14] = in vivo; conditions: C57BL/6, mouse, iv, 5.5 MBq, total radioactivity, tracer uptake
Description: as §2, §3

[15] = design: species or system mice; conditions: mouse, in vivo
Description: as §3

[16] = in vivo; conditions: CB17 SCID, mouse, iv, 5.5 MBq, total radioactivity, SUVmean of tumor
Description: as §5, §2, §6

[17] = in vivo; conditions: CB17 SCID, mouse, iv, 5.5 MBq, total radioactivity
Description: as §2, §3

[18] = in vivo; conditions: C57BL/6, mouse, iv, 5.5 MBq, total radioactivity, SUVmean of tumor
Description: as §5, §2, §6

[19] = HT1080, day 3 (start of treatment)
[20] = HT1080, day 5, bestatin 15 mg/kg or actinonin 5 mg/kg ip daily
[21] = HT1080, day 10, bestatin 15 mg/kg or actinonin 5 mg/kg ip daily 7 days
[22] = B16-F10, day 5, bestatin 15 mg/kg or actinonin 5 mg/kg ip daily
[23] = B16-F10, day 5, ip daily from day 3 (bestatin 15 mg/kg, actinonin 5 mg/kg)
[24] = B16-F10, day 10, bestatin 15 mg/kg or actinonin 5 mg/kg ip daily 7 days
[25] = B16-F10, day 10, ip daily 7 days (bestatin 15 mg/kg, actinonin 5 mg/kg)
[26] = HT1080, day 5, ip daily from day 3 (bestatin 15 mg/kg, actinonin 5 mg/kg)
[27] = HT1080, day 10, ip daily 7 days (bestatin 15 mg/kg, actinonin 5 mg/kg)
[28] = B16-F10, day 3 (start of treatment)

In the case of `CCCCC[C@H](CC(=O)NO)C(=O)N[C@H](C(=O)N1CCC[C@H]1CO)C(C)C` [actinonin], the “expression of APN/CD13 in tumor vs untreated” value [1] is reported as “significantly lower”, the “T/M ID%/g, treated animals” value [2] is reported as 1.71±1.45 and the “T/M ID%/g, treated animals” value [3] is reported as 15.27±5.52. The “tumor growth of APN/CD13-positive leukemia” value [4] was “blocked the tumor growth”, the “growth of APN/CD13-negative lymphomas” value [5] was “arrested the growth” and the antitumor effect [6] was “full antitumor effect”. The antitumor effect [7] was “not seen”, the tumor volume [8, 19] was 49.1 ± 2.0 mm^3 and the tumor volume [8, 20] was 68.08 ± 2.5 mm^3. For the same compound, the tumor volume [8, 21] was 136.0 ± 8.5 mm^3, the “T/M ratio of treated tumor” value [9, 22] was 0.75 ± 0.15 and the “^68Ga-NODAGA-c(NGR) SUVmean of treated tumor” value (shortened to “^68Ga-NODAGA-c(NGR) SUVmean”) [9, 23] was 0.02 ± 0.001. For the same compound, the “T/M ratio of treated tumor” value [9, 24] was 0.74 ± 0.05, the “^68Ga-NODAGA-c(NGR) SUVmean” value [9, 25] was 0.02 ± 0.001 and the “T/M SUVmean ratio of treated tumor” value [10, 20] was 2.25 ± 1.0. The “^68Ga-NODAGA-c(NGR) SUVmean” value [10, 26] was 0.08 ± 0.04, the “T/M SUVmean ratio of treated tumor” value [10, 21] was 15.57 ± 4.0 and the “^68Ga-NODAGA-c(NGR) SUVmean” value [10, 27] was 0.11 ± 0.05. The tumor volume [11, 28] was 49.0 ± 2.7 mm^3, the tumor volume [11, 22] was 59 ± 4.9 mm^3 and the tumor volume [11, 24] was 56.1 ± 2.1 mm^3.

In the case of `CC(C)C[C@H](NC(=O)[C@@H](O)[C@H](N)Cc1ccccc1)C(=O)O` [bestatin], the “expression of APN/CD13 in tumor vs untreated” value [1] is reported as “significantly lower”, the “T/M ID%/g, treated animals” value [2] is reported as 2.40±0.92 and the “T/M ID%/g, treated animals” value [3] is reported as 1.45±0.15. The tumor volume [8, 19] was 52.3 ± 2.8 mm^3, the tumor volume [8, 20] was 17 ± 1.2 mm^3 and the tumor volume [8, 21] was 7.0 ± 2.0 mm^3. For the same compound, the “T/M ratio of treated tumor” value [9, 22] was 1.11 ± 0.01, the “^68Ga-NODAGA-c(NGR) SUVmean” value [9, 23] was 0.03 ± 0.01 and the “T/M ratio of treated tumor” value [9, 24] was 1.63 ± 0.09. For the same compound, the “^68Ga-NODAGA-c(NGR) SUVmean” value [9, 25] was 0.04 ± 0.001, the “T/M SUVmean ratio of treated tumor” value [10, 20] was 0.57 ± 0.2 and the “^68Ga-NODAGA-c(NGR) SUVmean” value [10, 26] was 0.02 ± 0.01. For the same compound, the “T/M SUVmean ratio of treated tumor” value [10, 21] was 0.61 ± 0.20, the “^68Ga-NODAGA-c(NGR) SUVmean” value [10, 27] was 0.01 ± 0.01 and the “amount of APN/CD13 protein in tumor vs control-untreated” value [12] was “did not significantly reduce”. For the same compound, the tumor volume [11, 28] was 52.1 ± 2.6 mm^3, the tumor volume [11, 22] was 65.0 ± 5.2 mm^3 and the tumor volume [11, 24] was 62.0 ± 2.8 mm^3.

`N=C(N)NCCC[C@@H]1NC(=O)CNC(=O)[C@H](CC(N)=O)NC(=O)[C@H](CCCCNC(=O)CCC(C(=O)O)N2CCN(CC(=O)O)CCN(CC(=O)O)CC2)NC(=O)CC[C@@H](C(N)=O)NC1=O` (some centres unmarked) [^68Ga-NODAGA-c(NGR), metal not drawn] (K(NODAGA)NGRE-NH2; lactam N-5 (inferred)) gave a remaining at 2 h [13] greater than 99%, a tissue uptake at 1.5 h ([14]; blood) of 0.09 ± 0.03 %ID/g and a tissue uptake at 1.5 h ([14]; fat) of 0.01 %ID/g. It also gave a tissue uptake at 1.5 h ([14]; heart) of 0.04 ± 0.01 %ID/g, a tissue uptake at 1.5 h ([14]; kidney) of 1.38 ± 0.13 %ID/g and a tissue uptake at 1.5 h ([14]; large intestine) of 0.06 ± 0.02 %ID/g. It also gave a tissue uptake at 1.5 h ([14]; liver) of 0.08 ± 0.02 %ID/g, a tissue uptake at 1.5 h ([14]; lung) of 0.1 ± 0.01 %ID/g and a tissue uptake at 1.5 h ([14]; muscle) of 0.02 %ID/g. For the same compound, the tissue uptake at 1.5 h ([14]; small intestine) was 0.07 ± 0.01 %ID/g, the tissue uptake at 1.5 h ([14]; spleen) was 0.05 ± 0.01 %ID/g and the tissue uptake at 1.5 h ([14]; stomach) was 0.06 ± 0.01 %ID/g. For the same compound, the tissue uptake at 1.5 h ([14]; tumor) was 0.27 ± 0.05 %ID/g, the “accumulation in the kidneys” value [15] was 1.3-1.6 ID%/g and the “uptake in the liver” value [15] was 0.08-0.28 ID%/g. It also gave an SUV at 1.5 h [16] of 0.07 ± 0.03 SUV, a tissue uptake at 1.5 h ([17]; T/M ID%/g (%ID/g tumor/%ID/g muscle)) of 5.3 ± 0.56 %ID/g and a tissue uptake at 1.5 h ([17]; tracer uptake, blood) of 0.04 ± 0.01 %ID/g. For the same compound, the tissue uptake at 1.5 h ([17]; tracer uptake, fat) was 0.02 ± 0.01 %ID/g, the tissue uptake at 1.5 h ([17]; tracer uptake, heart) was 0.03 ± 0.01 %ID/g and the tissue uptake at 1.5 h ([17]; tracer uptake, kidney) was 1.35 ± 0.45 %ID/g. The tissue uptake at 1.5 h ([17]; tracer uptake, large intestine) was 0.06 ± 0.01 %ID/g, the tissue uptake at 1.5 h ([17]; tracer uptake, liver) was 0.2 ± 0.01 %ID/g and the tissue uptake at 1.5 h ([17]; tracer uptake, lung) was 0.1 ± 0.02 %ID/g. It also gave a tissue uptake at 1.5 h ([17]; tracer uptake, muscle) of 0.01 %ID/g, a tissue uptake at 1.5 h ([17]; tracer uptake, small intestine) of 0.04 %ID/g and a tissue uptake at 1.5 h ([17]; tracer uptake, spleen) of 0.11 ± 0.02 %ID/g. The tissue uptake at 1.5 h ([17]; tracer uptake, stomach) was 0.04 ± 0.01 %ID/g, the tissue uptake at 1.5 h ([17]; tracer uptake, tumor) was 0.08 ± 0.04 %ID/g and the SUV at 1.5 h [18] was 0.19 ± 0.03 SUV. It also gave an SUVmean of tumor ([9]; C57BL/6, mouse, in vivo, iv, 5.5 MBq, 1.5 h) of 0.36 ± 0.05 and an SUVmean of tumor ([10]; CB17 SCID, mouse, in vivo, iv, 5.5 MBq, 1.5 h) of 0.10 ± 0.05.
